EC50, IC50 and AC50 data for 6 molecules are collected here from ChEMBL document CHEMBL1201862, “PubChem BioAssay data set” (2004).

One assay addresses Beta-galactosidase (Escherichia coli, UniProt Q8VNN2). In words: PubChem AID 485352. It counts as functional.
Assay [1] has as its target Type-1 angiotensin II receptor (Homo sapiens, UniProt P30556). In words: antagonism of angiotensin II type 1 receptor – cell-based, uHTS hits, selectivity assay for APJ receptor antagonist project, dose response (AID 463214).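 Also: antagonist potency against angiotensin II stimulated AT1 response.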 It counts as functional.
A further assay relates to HEK293. Briefly: cells. Type of assay: functional, cell-based. As to conditions: Homo sapiens.
Assay [2] deals with Nuclear receptor subfamily 0 group B member 1 (Homo sapiens, UniProt P51843). In words: Luminescence-based cell-based high throughput dose response assay for inhibitors of the orphan nuclear receptor subfamily 0, group B, member 1 (DAX1; NR0B1). [Related pubchem assays (depositor defined):AID504766, AID504790]. Type of assay: functional.
For assay [3], the target named is T1, DNA repair and recombination protein RAD54-like (Homo sapiens, UniProt Q92698).
T1 sequence (Q92698 whole entry): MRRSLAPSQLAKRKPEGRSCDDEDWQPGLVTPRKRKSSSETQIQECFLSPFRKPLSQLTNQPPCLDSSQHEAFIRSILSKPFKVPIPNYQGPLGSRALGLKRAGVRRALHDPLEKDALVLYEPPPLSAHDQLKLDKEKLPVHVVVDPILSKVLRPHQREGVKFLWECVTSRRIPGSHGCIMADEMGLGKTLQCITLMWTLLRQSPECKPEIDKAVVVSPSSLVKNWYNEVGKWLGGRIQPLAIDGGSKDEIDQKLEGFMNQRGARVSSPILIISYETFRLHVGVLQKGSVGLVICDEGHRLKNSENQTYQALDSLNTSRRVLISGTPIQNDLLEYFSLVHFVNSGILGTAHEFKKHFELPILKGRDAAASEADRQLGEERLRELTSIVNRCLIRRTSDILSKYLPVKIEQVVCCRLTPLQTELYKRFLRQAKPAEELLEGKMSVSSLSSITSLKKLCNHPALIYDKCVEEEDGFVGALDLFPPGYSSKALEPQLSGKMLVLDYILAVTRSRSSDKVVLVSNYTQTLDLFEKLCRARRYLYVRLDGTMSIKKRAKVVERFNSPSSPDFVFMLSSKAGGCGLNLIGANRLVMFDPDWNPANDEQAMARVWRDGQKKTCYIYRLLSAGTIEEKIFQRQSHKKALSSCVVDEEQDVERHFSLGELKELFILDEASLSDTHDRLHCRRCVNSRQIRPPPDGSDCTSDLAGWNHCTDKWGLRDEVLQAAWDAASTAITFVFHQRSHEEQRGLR
Briefly: RAD54 Holliday junction migration blockers – biochemical, fluorescence, cherry-picked samples, dose series, confirmation (AID 651657). It counts as functional.

Assay [4] has as its system Streptococcus sp. 'group A'. Briefly: Streptococcus pyogenes SK(-)GAS viability under kanamycin – luminescence, BacTiterGlo, confirmation, counter-screen for streptokinase expression inhibitor project, dose response (AID 1900). It counts as functional, organism-based. For orientation: Counterscreens check selectivity or assay interference.
The target of a further assay is T2, Streptokinase A (Streptococcus pyogenes serotype M1, UniProt P10520).
T2 sequence (P10520 whole entry): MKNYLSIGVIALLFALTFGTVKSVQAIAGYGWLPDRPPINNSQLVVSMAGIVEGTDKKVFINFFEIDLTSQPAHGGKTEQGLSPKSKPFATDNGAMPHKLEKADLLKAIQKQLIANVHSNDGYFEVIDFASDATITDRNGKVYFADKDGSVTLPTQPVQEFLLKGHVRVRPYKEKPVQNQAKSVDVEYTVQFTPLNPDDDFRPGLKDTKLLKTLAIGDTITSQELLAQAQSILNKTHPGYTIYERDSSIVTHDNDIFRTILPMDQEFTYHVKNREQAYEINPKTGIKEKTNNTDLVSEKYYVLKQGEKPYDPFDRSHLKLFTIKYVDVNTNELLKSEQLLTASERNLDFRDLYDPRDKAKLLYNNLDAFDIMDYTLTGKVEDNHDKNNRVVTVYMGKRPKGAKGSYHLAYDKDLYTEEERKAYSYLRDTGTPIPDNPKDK
In words: viability-normalized secreted streptokinase activity reduction – plasminogen activation absorbance, OD405, dose response (AID 1914).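 Also: secreted streptokinase activity via plasminogen activation per viability signal from cell pellet.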 It counts as functional, Streptococcus pyogenes M1 GAS.

For another assay, the system named is Streptococcus. In words: GAS UMAA2166 growth inhibition – luminescence, BacTiterGlo, counter-screen for streptokinase expression inhibitor project, dose response (AID 1915).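 Also: potency for reduction of bacterial viability or growth.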 It counts as functional, organism-based.
The next assay deals with Cysteine protease ATG4B (Homo sapiens, UniProt Q9Y4P1). It counts as functional.
Another assay concerns the target Phospholipase A2 (Homo sapiens, UniProt P04054). Type of assay: functional.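 Also: confirmatory dose-response counterscreen on phospholipase A2, testing hits that came from an ultra-high-throughput screen for ATG4B inhibitors.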
Assay [5] concerns Candida albicans. Briefly: fluconazole-resistant Candida strain growth inhibitors – CaCi-8 strain, dry powder, set 4, dose response (AID 488950). Type of assay: functional, organism-based.
Assay [6] deals with Candida albicans. Briefly: C. albicans growth inhibition with fluconazole – CaCi-2 strain, Alamar Blue, dry powder, set 4, dose response (AID 488943). Type of assay: functional, organism-based. (In general: The colour change of resazurin is a common sign of viable cells or microbes.)
Assay [7] concerns Candida albicans. In words: antifungal activity against resistant Candida strain – CaCi-8, fluconazole, Alamar Blue, dry powder, dose response (AID 488807). It counts as functional, organism-based.
In a further assay the target is Hexokinase-1 (Homo sapiens, UniProt P19367). Briefly: SAR analysis of small molecule inhibitors of hexokinase domain containing I (HKDC1) in the hexokinase 1 selectivity assay. [Related pubchem assays (depositor defined):AID493160, AID493190]. It counts as functional.
Another assay has as its target Hexokinase HKDC1 (Homo sapiens, UniProt Q2TB90). In words: SAR analysis of small molecule inhibitors of hexokinase domain containing I (HKDC1). [Related pubchem assays (depositor defined):AID493160, AID493190]. Type of assay: functional.
Assay [8] has as its target T3, Short transient receptor potential channel 4 (Mus musculus, UniProt Q9QUQ5).
T3 sequence (Q9QUQ5 whole entry): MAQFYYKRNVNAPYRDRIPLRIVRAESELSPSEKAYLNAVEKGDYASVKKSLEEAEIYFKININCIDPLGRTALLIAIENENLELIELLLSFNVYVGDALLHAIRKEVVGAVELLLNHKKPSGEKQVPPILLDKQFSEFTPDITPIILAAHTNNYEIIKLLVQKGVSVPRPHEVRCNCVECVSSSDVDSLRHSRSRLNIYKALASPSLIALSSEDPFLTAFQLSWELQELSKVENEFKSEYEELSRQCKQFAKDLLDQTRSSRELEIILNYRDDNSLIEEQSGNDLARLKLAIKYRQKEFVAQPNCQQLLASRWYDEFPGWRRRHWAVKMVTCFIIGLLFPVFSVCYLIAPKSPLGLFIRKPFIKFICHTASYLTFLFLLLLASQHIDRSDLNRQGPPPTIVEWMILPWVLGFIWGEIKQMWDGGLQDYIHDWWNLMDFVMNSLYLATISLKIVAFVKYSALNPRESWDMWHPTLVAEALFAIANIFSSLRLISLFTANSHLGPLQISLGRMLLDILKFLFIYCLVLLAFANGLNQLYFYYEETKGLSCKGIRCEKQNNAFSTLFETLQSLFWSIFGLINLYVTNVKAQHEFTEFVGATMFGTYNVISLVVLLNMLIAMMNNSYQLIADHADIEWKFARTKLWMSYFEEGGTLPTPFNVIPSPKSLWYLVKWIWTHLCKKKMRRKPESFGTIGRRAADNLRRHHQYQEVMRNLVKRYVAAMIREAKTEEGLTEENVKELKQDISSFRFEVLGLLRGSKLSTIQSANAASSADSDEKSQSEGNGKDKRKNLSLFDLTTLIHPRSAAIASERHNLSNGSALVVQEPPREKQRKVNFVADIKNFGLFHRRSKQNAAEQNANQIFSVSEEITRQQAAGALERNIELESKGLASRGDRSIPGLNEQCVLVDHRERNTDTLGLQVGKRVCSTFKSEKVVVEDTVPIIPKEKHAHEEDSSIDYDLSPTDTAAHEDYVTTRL
In words: potency of mouse TRPC4 calcium flux blockers – cell-based, HEK293 TRPC4/mu-opioid, DAMGO stimulus, Fluo-4, dose response (AID 492994). It counts as functional.

Activity calls are given as the source filed them.

Phospholipase A2, sequence (P04054 whole entry): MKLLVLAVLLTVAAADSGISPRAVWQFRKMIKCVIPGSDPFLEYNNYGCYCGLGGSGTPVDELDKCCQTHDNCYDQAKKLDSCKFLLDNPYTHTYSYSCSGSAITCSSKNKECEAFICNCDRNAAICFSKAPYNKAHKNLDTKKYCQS
Nuclear receptor subfamily 0 group B member 1, sequence (P51843 whole entry): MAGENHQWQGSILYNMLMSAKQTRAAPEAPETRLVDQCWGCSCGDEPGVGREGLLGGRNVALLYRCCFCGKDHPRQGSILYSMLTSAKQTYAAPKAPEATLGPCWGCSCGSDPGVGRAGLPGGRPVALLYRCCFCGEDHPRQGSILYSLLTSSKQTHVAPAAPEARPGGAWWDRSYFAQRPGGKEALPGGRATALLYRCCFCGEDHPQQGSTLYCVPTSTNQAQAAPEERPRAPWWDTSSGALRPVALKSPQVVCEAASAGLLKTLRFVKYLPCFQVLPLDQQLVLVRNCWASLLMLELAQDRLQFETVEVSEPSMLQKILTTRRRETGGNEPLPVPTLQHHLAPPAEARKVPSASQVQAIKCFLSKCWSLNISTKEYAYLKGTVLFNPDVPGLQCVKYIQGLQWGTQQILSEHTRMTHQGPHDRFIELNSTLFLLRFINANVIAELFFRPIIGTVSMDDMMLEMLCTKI
Type-1 angiotensin II receptor, sequence (P30556 whole entry): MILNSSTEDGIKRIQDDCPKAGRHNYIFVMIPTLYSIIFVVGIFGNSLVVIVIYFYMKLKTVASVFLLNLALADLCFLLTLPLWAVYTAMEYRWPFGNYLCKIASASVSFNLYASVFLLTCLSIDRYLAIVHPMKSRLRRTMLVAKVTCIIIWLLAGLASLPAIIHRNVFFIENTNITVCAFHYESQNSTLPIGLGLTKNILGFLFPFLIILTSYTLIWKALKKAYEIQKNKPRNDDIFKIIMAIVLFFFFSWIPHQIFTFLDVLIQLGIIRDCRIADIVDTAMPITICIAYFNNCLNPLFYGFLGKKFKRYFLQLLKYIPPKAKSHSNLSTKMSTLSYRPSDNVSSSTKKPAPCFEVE
Hexokinase HKDC1, sequence (Q2TB90 whole entry, the tested form may be a part): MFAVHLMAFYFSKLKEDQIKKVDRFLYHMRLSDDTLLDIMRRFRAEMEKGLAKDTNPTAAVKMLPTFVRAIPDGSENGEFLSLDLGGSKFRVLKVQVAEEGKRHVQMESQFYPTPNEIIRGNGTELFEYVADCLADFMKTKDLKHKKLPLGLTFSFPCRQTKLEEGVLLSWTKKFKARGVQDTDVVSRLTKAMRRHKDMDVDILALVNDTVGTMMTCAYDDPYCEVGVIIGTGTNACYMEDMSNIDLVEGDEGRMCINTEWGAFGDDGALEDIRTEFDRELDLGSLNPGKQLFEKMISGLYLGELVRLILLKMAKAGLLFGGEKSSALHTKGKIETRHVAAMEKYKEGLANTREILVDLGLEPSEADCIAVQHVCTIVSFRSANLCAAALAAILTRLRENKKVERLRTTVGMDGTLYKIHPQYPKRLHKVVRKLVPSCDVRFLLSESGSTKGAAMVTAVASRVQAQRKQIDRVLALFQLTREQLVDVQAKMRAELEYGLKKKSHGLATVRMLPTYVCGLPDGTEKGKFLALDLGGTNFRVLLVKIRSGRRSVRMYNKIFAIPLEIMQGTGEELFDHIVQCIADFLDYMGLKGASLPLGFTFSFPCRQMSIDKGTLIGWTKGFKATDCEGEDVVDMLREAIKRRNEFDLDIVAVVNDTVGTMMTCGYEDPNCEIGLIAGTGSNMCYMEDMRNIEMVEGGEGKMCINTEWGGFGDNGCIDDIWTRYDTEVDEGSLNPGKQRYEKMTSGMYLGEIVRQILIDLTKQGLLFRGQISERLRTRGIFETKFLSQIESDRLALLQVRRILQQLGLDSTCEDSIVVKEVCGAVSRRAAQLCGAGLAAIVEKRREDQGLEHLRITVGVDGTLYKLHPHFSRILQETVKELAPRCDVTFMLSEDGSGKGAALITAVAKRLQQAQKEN
Cysteine protease ATG4B, sequence (Q9Y4P1 whole entry): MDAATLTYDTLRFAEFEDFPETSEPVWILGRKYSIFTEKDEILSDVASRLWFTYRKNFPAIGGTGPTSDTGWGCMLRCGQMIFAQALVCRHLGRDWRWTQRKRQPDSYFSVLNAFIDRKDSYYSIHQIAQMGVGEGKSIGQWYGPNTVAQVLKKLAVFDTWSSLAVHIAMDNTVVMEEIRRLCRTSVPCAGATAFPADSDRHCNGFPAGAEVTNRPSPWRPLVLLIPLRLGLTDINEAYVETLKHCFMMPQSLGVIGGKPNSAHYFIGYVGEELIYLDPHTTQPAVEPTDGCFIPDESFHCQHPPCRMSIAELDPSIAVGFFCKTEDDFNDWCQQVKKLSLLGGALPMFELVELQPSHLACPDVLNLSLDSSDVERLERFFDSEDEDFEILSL
Hexokinase-1, sequence (P19367 whole entry, the tested form may be a part): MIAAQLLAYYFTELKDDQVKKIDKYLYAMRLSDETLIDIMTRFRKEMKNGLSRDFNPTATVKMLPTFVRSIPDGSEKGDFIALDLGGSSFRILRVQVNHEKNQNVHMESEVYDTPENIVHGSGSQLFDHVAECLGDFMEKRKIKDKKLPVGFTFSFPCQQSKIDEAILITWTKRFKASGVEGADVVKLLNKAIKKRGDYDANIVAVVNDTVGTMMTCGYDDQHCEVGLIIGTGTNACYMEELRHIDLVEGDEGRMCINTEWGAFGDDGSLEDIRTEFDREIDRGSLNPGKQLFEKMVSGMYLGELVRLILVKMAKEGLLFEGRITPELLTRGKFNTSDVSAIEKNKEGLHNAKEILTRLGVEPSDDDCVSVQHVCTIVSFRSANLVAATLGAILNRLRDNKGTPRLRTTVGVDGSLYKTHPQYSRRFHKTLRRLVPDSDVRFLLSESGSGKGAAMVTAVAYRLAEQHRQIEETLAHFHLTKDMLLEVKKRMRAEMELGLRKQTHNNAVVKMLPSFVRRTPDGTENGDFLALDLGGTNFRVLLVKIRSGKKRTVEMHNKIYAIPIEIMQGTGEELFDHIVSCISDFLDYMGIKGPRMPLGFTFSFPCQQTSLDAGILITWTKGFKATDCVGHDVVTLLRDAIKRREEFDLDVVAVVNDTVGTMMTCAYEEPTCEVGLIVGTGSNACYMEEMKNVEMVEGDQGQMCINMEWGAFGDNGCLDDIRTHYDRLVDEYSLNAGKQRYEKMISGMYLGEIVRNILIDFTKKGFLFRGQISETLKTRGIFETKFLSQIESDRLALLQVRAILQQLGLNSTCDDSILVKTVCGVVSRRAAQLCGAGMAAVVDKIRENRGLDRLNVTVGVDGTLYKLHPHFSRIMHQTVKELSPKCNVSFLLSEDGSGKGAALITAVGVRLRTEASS
Beta-galactosidase, sequence (Q8VNN2 whole entry): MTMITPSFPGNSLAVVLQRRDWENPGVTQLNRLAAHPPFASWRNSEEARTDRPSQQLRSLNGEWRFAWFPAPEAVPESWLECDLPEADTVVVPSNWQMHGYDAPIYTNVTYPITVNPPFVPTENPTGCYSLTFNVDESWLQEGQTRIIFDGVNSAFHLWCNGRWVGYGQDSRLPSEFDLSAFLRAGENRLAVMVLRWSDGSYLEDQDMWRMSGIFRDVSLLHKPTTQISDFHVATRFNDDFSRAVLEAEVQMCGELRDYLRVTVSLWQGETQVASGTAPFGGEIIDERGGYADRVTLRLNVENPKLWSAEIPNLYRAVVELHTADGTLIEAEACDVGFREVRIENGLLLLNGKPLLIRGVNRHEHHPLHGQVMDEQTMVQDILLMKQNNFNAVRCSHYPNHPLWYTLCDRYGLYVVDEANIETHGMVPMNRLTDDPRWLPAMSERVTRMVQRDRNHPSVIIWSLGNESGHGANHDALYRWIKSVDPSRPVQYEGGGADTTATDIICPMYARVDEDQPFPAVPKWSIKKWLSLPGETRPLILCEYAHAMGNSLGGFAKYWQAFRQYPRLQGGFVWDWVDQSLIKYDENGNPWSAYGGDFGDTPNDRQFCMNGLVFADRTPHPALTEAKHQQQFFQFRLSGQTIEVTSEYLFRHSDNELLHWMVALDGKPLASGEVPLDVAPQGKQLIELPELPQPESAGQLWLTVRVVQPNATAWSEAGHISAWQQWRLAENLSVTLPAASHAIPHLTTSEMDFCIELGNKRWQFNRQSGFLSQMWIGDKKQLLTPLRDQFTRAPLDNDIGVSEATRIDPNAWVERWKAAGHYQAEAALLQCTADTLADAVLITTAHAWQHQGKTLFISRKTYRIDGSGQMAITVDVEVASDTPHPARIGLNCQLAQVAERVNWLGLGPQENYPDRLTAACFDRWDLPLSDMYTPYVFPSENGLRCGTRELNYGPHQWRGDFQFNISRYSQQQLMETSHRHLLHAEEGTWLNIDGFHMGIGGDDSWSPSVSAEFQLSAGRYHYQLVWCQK

The term EC50 denotes the concentration that produces a half-maximal response. For orientation: IC50 means the concentration that gives 50% inhibition. As for `CN(C)c1ccc(/C=C2\N=C(c3ccc(Cl)c([N+](=O)[O-])c3)NC2=O)cc1`, the EC50 on Beta-galactosidase was > 40 µM (inactive). The IC50 in assay [1] is reported as > 40 µM (not active).
As a reminder, the AC50 is the concentration giving half of the maximal activity seen. As for `CCN(CC)CCCNC(=O)c1cc2c(=O)n(C)c3ccccc3c2n1C`, the IC50 (with HEK293; in [2]) was > 67.5 µM (inactive) throughout. In addition, the half-maximal activity concentration (AC50) in assay [3] was 26.9 µM (active).
As to `CSc1nnc2nc3c(c(O)n12)C1(CCCCC1)Cc1ccccc1-3`, the EC50 in [4] was 7.86 µM (active); on Streptokinase A, > 150 µM (not active); with Streptococcus it was 123 µM (active). The IC50 on Cysteine protease ATG4B was 7.09 µM (active); at Phospholipase A2, 5.6 µM (active).
For `O=C(c1ccc(Cl)cc1)N1CCN(c2ccc(Cl)cc2)CC1`, the AC50 in the assay on Candida albicans [5] was 5.25 µM (active); with Candida albicans [6], 4.76 µM (active); in the assay with Candida albicans [7], 0.375 µM (active).
As to `N#Cc1ccc(CSc2nnc(NC(=O)c3ccncc3)s2)cc1`, the IC50 on Hexokinase-1 and on Hexokinase HKDC1 was > 80 µM (inactive) throughout.
With `COCCN(C)c1cc(C)c2ccccc2n1`, in assay [8], the IC50 is 20.8 µM (active).
